Test results taken from PMC7083880 (Nature Communications, 2020).
Several values for one entry are separate records, joined by “and”; a condition that tells them apart may be missing. Identical values can stand only once.

What was measured:
[1] = tested on: HCC-GR6 cell tumors (wild-type TP53) in nude mice; test: In vivo tumor growth, HCC-GR6 cells in nude mice; set-up: species or system mouse; details: force-fed daily, 5 weeks
Experimental: (§1) Next, the capacity of DAP to correct UGA nonsense mutations in vivo was assessed in a mouse model. Four-week-old immunodeficient nude mice were injected with an identical number of Calu-6 cells carrying a UGA nonsense mutation in the TP53 gene, of HCC-GR6 cells having a wild-type TP53 gene or of p53-null 4T1 cells. […] The slower growth of Calu-6-cell-derived tumors in DAP-treated mice is thus likely due to rescue of p53 protein synthesis in these tumors, as expected on the basis of our cell culture experiments and as observed after western-blotting applied to protein extracts of tumors from DAP-treated mice (Supplementary Fig. 8B). Because of the small size of the Calu-6 tumors in DAP-treated mice and thus the high probability of collecting mouse cells upon tumor excision, quantitation of p53 was done in another experiment.
To initiate tumor growth, 6-week-old nude mice received subcutaneously 10 million cells suspended in PBS. […] Tumors were measured three times weekly for 5 weeks to determine the tumor volume by the following formula: l (mm) × L (mm) × L (mm). […]
The mice were exposed to DMSO or DAP for about five weeks and tumor size was measured three times weekly and plotted on the graph. […]
(B) Western blot analysis of p53 protein in the Calu-6-cell tumors of the seven DMSO-exposed and seven DAP-exposed mice. […] Error bar= S.D., p-values (p) were calculated using Student's t-test. […]

[2] = tested on: Fluc-int-UGA construct in HEK293FT cells; test: Amino-acid identification assay (mass spectrometry); format: cell-based, human; details: 25 µM DAP
From the text: To elucidate the molecular mechanism of DAP-promoted UGA readthrough, mass spectrometry was used to identify the amino acid incorporated at the PTC position into firefly luciferase synthesized from the Fluc-int-UGA construct. […] The luciferase protein was digested with […] to generate a PTC-position-containing peptide compatible with mass spectrometry analysis. Using this approach, we found only one amino acid, tryptophan, incorporated at the PTC position in the peptide of interest (Fig. 5a).
Firefly luciferase from HEK293FT cells transfected with the Fluc-int-UGA construct was immunoprecipitated and digested with trypsin. The MS/MS spectrum of the peptide containing the PTC position and the sequence determination are shown. […] Readthrough efficiency was determined by measuring luciferase activity in HeLa cells co-transfected with the firefly luciferase construct described in Fig. 1b and with increasing amounts of an expression vector for either FTSJ1 or CTU1 (0.5, 1, or 2 µg). […] A molecular weight marker is indicated to the left of each gel. p-values (p) were calculated using Student’s t-test. […]
Sixty million HEK293FT cells were transfected with 120 µg Fluc-int-UGA construct with CaCl2 in HBSS buffer. […] The immunoprecipitate was subjected to 10% SDS–PAGE and then firefly luciferase was detected by Coomassie staining. […]

[3] = DAP stability assay in human liver S9; format: in vitro ADME; details: pooled human liver S9 fraction, 37 °C, read-out: Recovery of the molecule after incubation
Experimental: The S9 mix was composed of 5 mM glucose-6-phosphate (Ref. G7879, Batch no. SLBP253V, Sigma, France), 33.5 mM KCl (Ref. P3911, Batch no. SLBQ3328V, Sigma, France), 8 mM MgCl2 (Ref. M8266, Batch no. SLBK9099V, Sigma, France), 4 mM β-NADP (Ref. N5755, Batch no. SLBJ7935V, Sigma, France), and 100 mM NaH2PO4 (Ref. S3139, Batch no. BCBT3558, Sigma, France) in ultrapure water (Ref. BE51200, Batch no. BCBT3558, Lonza, France). Seventy-five microliters of human liver S9 fraction (Pooled Human Liver S9, 20 mg/ml, Ref. 452961, BD, France) was then added to 1380 µl of this S9 mix. The solution was warmed for 15 min at 37 °C in a thermostated water bath. The final protein concentration was 1 mg/ml after addition of working solutions.
The samples were then centrifuged and directly analyzed by LC–MS. The extraction efficiency was estimated at 97.2%. After extraction, the collected supernatants were directly injected into the HPLC system for analysis. Analysis was performed by MS to allow detection of potential metabolite(s).

[4] = tested on: p53-null 4T1 cell tumors in nude mice; test: In vivo tumor growth, 4T1 cells in nude mice; set-up: species or system mouse
Experimental: For each experimental condition, 7 mice were used. b Fourteen nude mice were injected with Calu-6 cells to promote tumor development. […] The arrow indicates the starting time of the exposure to DMSO or DAP. For each experimental condition, 7 mice were used. […] GAPDH was used as loading control. A molecular weight marker is indicated to the left of the gel. The results presented in this figure are representative of two independent experiments. p-values (p) were calculated using Student’s t-test. Source data are provided as a Source Data file.
as §1
To initiate tumor growth, 6-week-old nude mice received subcutaneously 10 million cells suspended in PBS. […] Tumors were measured three times weekly for 5 weeks to determine the tumor volume by the following formula: l (mm) × L (mm) × L (mm). The tumors were then collected and a fraction was used for western blot analysis after protein extraction. All in vivo experiments complied with all relevant ethical regulations for animal testing and research and were authorized by the Ethic Committee 075 under the number 12971-2018010815336092.

## Nc1nc(N)c2[nH]cnc2n1 [DAP, 2,6-diaminopurine]
[1]
  Tumor growth vs DMSO, in words: no significant difference in tumor growth
[2]
  Amino acid incorporated at the PTC position: tryptophan
[3]
  recovery at 4 h, 300 µM: > 80%
[4]; 4T1, day 4, average of 7 mice
  tumor size, Average: 0.036
[4]; 4T1, day 4, mice 1-7
  tumor size, individual mice: 0.048 and 0.027
[4]; 4T1, day 6, average of 7 mice
  tumor size, Average: 0.08071
[4]; 4T1, day 6, mice 1-7
  tumor size, individual mice: 0.125 and 0.064 and 0.1 and 0.048
[4]; 4T1, day 8, average of 7 mice
  tumor size, Average: 0.09843
[4]; 4T1, day 8, mice 1-7
  tumor size, individual mice: 0.125 and 0.1 and 0.064
[4]; 4T1, day 11, average of 7 mice
  tumor size, Average: 0.1407
[4]; 4T1, day 11, mice 1-7
  tumor size, individual mice: 0.18 and 0.125
[4]; 4T1, day 13, average of 7 mice
  tumor size, Average: 0.227
[4]; 4T1, day 13, mice 1-7
  tumor size, individual mice: 0.294 and 0.18 and 0.245 and 0.216
[4]; 4T1, day 15, average of 7 mice
  tumor size, Average: 0.401
[4]; 4T1, day 15, mice 1-7
  tumor size, individual mice: 0.448 and 0.567 and 0.294 and 0.343
[4]; 4T1, day 18, average of 7 mice
  tumor size, Average: 0.6964
[4]; 4T1, day 18, mice 1-7
  tumor size, individual mice: 0.648 and 0.8 and 0.567 and 0.9 and 0.512
[4]; 4T1, day 20, average of 7 mice
  tumor size, Average: 0.9223
[4]; 4T1, day 20, mice 1-7
  tumor size, individual mice: 0.9 and 0.968 and 0.8 and 1.44 and 0.648
[4]; 4T1, day 22, average of 7 mice
  tumor size, Average: 1.032
[4]; 4T1, day 22, mice 1-7
  tumor size, individual mice: 0.9 and 0.968 and 0.8 and 1.859
[4]; 4T1, day 25, average of 7 mice
  tumor size, Average: 1.344
[4]; 4T1, day 25, mice 1-7
  tumor size, individual mice: 1.089 and 1.44 and 1 and 2.7
[4]; 4T1, day 27, average of 7 mice
  tumor size, Average: 1.752
[4]; 4T1, day 27, mice 1-7
  tumor size, individual mice: 1.69 and 1.859 and 1.44 and 1.584 and 1.21 and 3.15 and 1.331
[4]; 4T1, day 29, average of 7 mice
  tumor size, Average: 2.057
[4]; 4T1, day 29, mice 1-7
  tumor size, individual mice: 1.69 and 2.028 and 1.859 and 1.584 and 4.046 and 1.331
[4]; 4T1, day 32, average of 7 mice
  tumor size, Average: 2.639
[4]; 4T1, day 32, mice 1-7
  tumor size, individual mice: 2.156 and 2.7 and 2.028 and 5.184 and 2.352
[4]; 4T1, day 34, average of 7 mice
  tumor size, Average: 3.227
[4]; 4T1, day 34, mice 1-7
  tumor size, individual mice: 2.925 and 2.548 and 2.744 and 5.776
[4]; 4T1, day 36, average of 7 mice
  tumor size, Average: 3.574
[4]; 4T1, day 36, mice 1-7
  tumor size, individual mice: 2.925 and 3.15 and 7.2 and 2.744
[4]; 4T1, nude mice, force-fed daily, 5 weeks
  Tumor growth vs DMSO, in words: no significant difference in tumor growth
